Experimental data reported in patent publication US12616759B2, “Uses of labeled HSP90 inhibitors” (Sloan-Kettering Institute for Cancer Research, priority 2011, dated 2026).
Like-named read-outs stand apart in the source and are kept apart here.

Columns and labels:
HSP90 = settings: for IC50: read-out: IC50, binding to HSP90
Description: FIGS. 1A, 1B, 1C, 1D, and 1E. […] Lysate=control cell extract. FIG. 1B HSP90 from MDA-MB-468 extracts was isolated through sequential chemical- and immuno-purification steps. The amount of HSP90 in each pool was quantified by densitometry and values were normalized to an internal standard. […] Representative data of four separate repeats is presented (lower). Expression of HSP90 in the indicated cells was analyzed by Western blot (upper). […] Post-treatment cells were treated with 1 μM PU-FITC. Binding of PU-FITC to the cells was evaluated by flow cytometry and is represented as mean fluorescence intensity (MFI). TEG-FITC is shown as a non-specific binding control. CD45 vs. SSC gating was used to distinguish binding to blast or lymphocytes from the primary specimens. […] Cell viability was evaluated by annexin V/7-AAD staining 96 h post-treatment.
CD34+ cell isolation was performed using CD34 MicroBead Kit and the automated magnetic cell sorter autoMACS according to the manufacturer's instructions (Miltenyi Biotech, Auburn, CA). […] Cell viability was analyzed by flow cytometry (BD Biosciences). […] Cells were stained with CD34-APC, CD38-PE-CY7 and CD45-APC-H7 antibodies (BD Biosciences) in FACS buffer (PBS, 0.05% FBS) at 4° C. for 30 min prior to Annexin V/7-AAD staining. […] At 4 h post treatment, cells were washed twice with FACS buffer. […] At 24 h post treatment, cells were washed twice, and stained with CD34-APC (or CD34-PECy7), CD38-PE-CY7 (or CD38-PE) and CD45-APC-H7 antibodies in FACS buffer at 4° C. for 30 min prior to 7-AAD staining. At 48 h, and 96 h post treatment, cells were stained with CD34-APC (or CD34-PECy7), CD38-PE-CY7 (or CD38-PE) and CD45-APC-H7 antibodies followed by Annexin V-V450 and 7-AAD staining to measure cell viability in blast, lymphocytes and CD34+ cell populations. […] Cells were collected, washed twice, stained for 7-AAD in FACS buffer, and analyzed by flow cytometry. HSP90 staining—Cells were fixed with fixation buffer (BD Biosciences) at 4° C. for 30 min, and permeabilized in Perm Buffer III (BD Biosciences) on ice for 30 min. Cells were stained with anti-HSP90 phycoerythrin conjugate (PE) (F-8 clone, Santa Cruz Biotechnologies; CA) for 60 minutes. Cells were washed and then analyzed by flow cytometry. Normal mouse IgG2a-PE was used as isotype control.

oncogenic HSP90 = experiment: PU-H71-FITC2 binding to pancreatic and breast cancer cell lines relative to HL-60 versus viability
MDA-MB-468 tumors [1] = experiment: PU-H71 tumor concentration predicted from [^124I]-PU-H71 PET (equation 1a, simulations)
[2] = as above; settings: mouse, tumor (MDA-MB-468), 75 mg/kg
[3] = PU-H71 tumor concentration by LC-MS/MS; assay type: in vivo, mice; settings: mouse, tumor (MDA-MB-468), read-out: actual tumor concentration by LC-MS/MS; for concentration at 24 h: 24 h after last dose
Description: LC-MS/MS analyses. […] Samples were reconstituted in mobile phase.

359 kinases = experiment: scanMAX kinase screen (Ambit); assay type: binding; settings: 10 μM
MDA-MB-468 tumors [4] = experiment: efficacy in MDA-MB-468 xenografts; assay type: in vivo, mice; settings: for anti-tumor effect: 75 mg/kg, 5 weeks
Description: Efficacy Studies. Mice (n=5) bearing MDA-MB-468 tumors reaching a volume of 100-150 mm^3 were treated i.p. (i.p.) using different doses and schedules, as indicated. Tumor volume was determined by measurement with Vernier calipers, and tumor volume was calculated as the product of its length×width^2×0.4. Tumor volume was expressed on indicated days as the median tumor volume±SD indicated for groups of mice. Percent (%) tumor growth inhibition values were measured on the final day of study for drug-treated compared with vehicle treated mice and are calculated as 100×{1−[(TreatedFinal day−TreatedDay 1)/(ControlFinal day−ControlDay 1)]}. Tumor regression values were determined by calculating the ratio of median tumor volumes at the time when treatment was initiated to median tumor volume on the final day of study for a given treatment group. Percent (%) tumor regression is 100×[1−(TreatedFinal day/TreatedDay 1)].

MO-91 tumors = experiment: pharmacodynamic study in MO-91 xenografted tumors; assay type: in vivo, mice; settings: post-administration of one dose
Description: Pharmacodynamic Study: Four- to 6-week-old nu/nu athymic female mice were obtained from Taconic Farms. Experiments were carried out under an Institutional Animal Care and Use Committee-approved protocol, and institutional guidelines for the proper and humane use of animals in research were followed. HEL and MO-91 cells were subcutaneously implanted in the right flank of mice using a 20-gauge needle and allowed to grow. Before administration, a solution of PU-H71-HCl was formulated in sterile PBS. For this assay, tumors were allowed to reach 6-8 mm in diameter before treatment. […] Tumors were homogenized and proteins analyzed by western blot as described above.

SMILES: CC(C)NCCCn1c(Sc2cc3c(cc2I)OCO3)nc2c(N)ncnc21 [PU-H71]
- sensitivity of HL-60 leukemia cells (oncogenic HSP90): resistant
- tumor concentration of PU-H71 (MDA-MB-468 tumors [1]; 1 mg/kg, 48 h and beyond): less than 0.05 μM
- simulated tumor concentration at the time of sacrifice (MDA-MB-468 tumors [1]; 5 mg/kg 3×week, 24 h after last dose): 0.43 µM
- [PU-H71tumor]avg (MDA-MB-468 tumors [1]; 75 mg/kg, 1×week): 2.88 µM
- [PU-H71tumor]avg (MDA-MB-468 tumors [1]; 75 mg/kg, 2×week): 5.41 µM
- [PU-H71tumor]avg (MDA-MB-468 tumors [1]; 75 mg/kg, 3×week): 7.45 µM
- tumor concentration from PET or biodistribution studies (MDA-MB-468 tumors [1]; 75 mg/kg, 24 h): 5.51 ± 1.78 µM
- concentration at 24 h [2]: 5.51 µM
- concentration at 72 h [2]: 2180 ± 1780 nM
- concentration at 96 h [2]: 2180 nM
- concentration at 24 h ([3]; 5 mg/kg 3×week): 0.52 ± 0.13 µM
- concentration at 24 h ([3]; 75 mg/kg 1×week): 5.53 ± 0.26 µM
- concentration at 96 h ([3]; 75 mg/kg 1×week, 96 h after last dose): 3.09 ± 1.4 µM
- kinase hits (359 kinases): Only SNARK (NUAK family SNF1-like kinase 2) (red dot on the kinase tree) appears as a potential low affinity kinase hit
- tumor volume at end of treatment (MDA-MB-468 tumors [4]; 5 mg/kg arm): 139±66 mm^3
- tumor growth inhibition (TGI) (MDA-MB-468 tumors [4]; 5 mg/kg i.p. 3×week, 7 weeks): 63%
- tumor growth inhibition (TGI) (MDA-MB-468 tumors [4]; 25 mg/kg i.p. 3×week, 7 weeks): 82%
- tumor growth inhibition (TGI) (MDA-MB-468 tumors [4]; 50 mg/kg i.p. 3×week, 7 weeks): 99%
- regression (MDA-MB-468 tumors [4]; 75 mg/kg i.p. 3×week, 7 weeks): 100%
- anti-tumor effect (MDA-MB-468 tumors [4]; 1×week): significant tumor growth inhibition
- anti-tumor effect (MDA-MB-468 tumors [4]; 2×week): tumor regressions
- average occupancy of tumor HSP90 sites needed for tumor regression and cure (MDA-MB-468 tumors [4]; averaged over the time of treatment): over 80%
- average occupied sites that may still lead to partial response (MDA-MB-468 tumors [4]; over the time of treatment): ≥ 15%
